Source: patent US20220306659A1, “COMPOUND INHIBITING AND INDUCING DEGRADATION OF EGFR AND ALK” (BEIJING TIDE PHARMACEUTICAL CO., LTD., priority 2019, published 2022)

How the values were obtained:
[1] = target: Ba/F3(EGFR^L858R/T790M/C797S) cells (Homo sapiens, UniProt P00533, T790M/C797S/L858R, cells depend on it); test: Assay of activity on Ba/F3 cells (CTG, 72 h); type: cell-based; details: read-out: IC50 (nM) Ba/F3 (EGFR^L858R/T790M/C797S)
Outline: (§1)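 Ba/F3 cells dependent on each EGFR triple mutant were exposed to 3-fold compound dilutions for 72 h at 37° C, 5% CO2, with CellTiter-Glo luminescence as the read-out.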

[2] = target: EGFR^Del19/T790M/C797S (Homo sapiens, UniProt P00533, C797S/DEL746-750/T790M); test: EGFR inhibitory activity assay (TK-substrate-biotin/ATP, 665/615 ratio); type: biochemical; details: kinase inhibition
Chain of EGFR^Del19/T790M/C797S (P00533 with tags, fused parts or gaps DEL746-750/T790M/C797S): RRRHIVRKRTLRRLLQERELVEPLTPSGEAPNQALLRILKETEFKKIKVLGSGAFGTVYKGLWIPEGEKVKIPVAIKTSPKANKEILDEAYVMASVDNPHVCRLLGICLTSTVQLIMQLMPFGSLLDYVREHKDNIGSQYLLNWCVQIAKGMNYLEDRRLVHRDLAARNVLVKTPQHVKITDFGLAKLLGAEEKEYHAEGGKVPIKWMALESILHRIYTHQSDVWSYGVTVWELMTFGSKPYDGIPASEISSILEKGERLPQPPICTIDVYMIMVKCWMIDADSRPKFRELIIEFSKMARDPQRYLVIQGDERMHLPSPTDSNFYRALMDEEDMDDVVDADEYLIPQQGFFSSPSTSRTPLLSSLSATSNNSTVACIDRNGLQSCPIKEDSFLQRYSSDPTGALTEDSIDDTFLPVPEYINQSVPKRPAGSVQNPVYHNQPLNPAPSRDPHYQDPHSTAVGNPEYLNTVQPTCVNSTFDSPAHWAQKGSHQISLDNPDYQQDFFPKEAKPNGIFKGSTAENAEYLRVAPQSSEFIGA
Description: EGFR Inhibitory Activity Assay
(2) The plate was sealed, and centrifuged at 1,000 g for 1 min;
(4) 5 μl of the 2×EGFR protein working solution was added to the 384-well plate from step (2), centrifuged at 1,000 g for 30 s, and allowed to stand at room temperature (mixed thoroughly) for 10 min;
(6) 5 µL of the TK-substrate-biotin and ATP (the mixture prepared in step (5)) was added to the 384-well plate from step (4) to initiate the reaction;
(7) The mixture was centrifuged at 1,000 g for 30 s; the plate was sealed, and allowed to stand (and reacted) at room temperature for 40 min;
(10) The mixture was centrifuged at 1,000 g for 30 s, and allowed to stand (reacted) at room temperature for 1 h;
(§2) Formula of inhibition rate (%): […]
(§3) The nonlinear regression curve (dose response-variable slope) between the value of inhibition rate (%) and the logarithm of compound concentration was fitted with graphpad prism 8.0, the effect dose curve of compound was drawn, and the IC50 value was calculated.

[3] = target: EGFR^L858R/T790M/C797S (Homo sapiens, UniProt P00533, C797S/L858R/T790M); test: as above; type: biochemical; details: kinase inhibition
Outline: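 HTRF kinase assay: enzyme preincubated with compound 10 min at room temperature, then reacted with biotinylated TK substrate and ATP for 40 min at room temperature.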

[4] = target: ALK (Homo sapiens, UniProt Q9UM73); test: Assay of activity on ALK kinase; type: biochemical; details: kinase inhibition
Chain of ALK (Q9UM73 19-1620): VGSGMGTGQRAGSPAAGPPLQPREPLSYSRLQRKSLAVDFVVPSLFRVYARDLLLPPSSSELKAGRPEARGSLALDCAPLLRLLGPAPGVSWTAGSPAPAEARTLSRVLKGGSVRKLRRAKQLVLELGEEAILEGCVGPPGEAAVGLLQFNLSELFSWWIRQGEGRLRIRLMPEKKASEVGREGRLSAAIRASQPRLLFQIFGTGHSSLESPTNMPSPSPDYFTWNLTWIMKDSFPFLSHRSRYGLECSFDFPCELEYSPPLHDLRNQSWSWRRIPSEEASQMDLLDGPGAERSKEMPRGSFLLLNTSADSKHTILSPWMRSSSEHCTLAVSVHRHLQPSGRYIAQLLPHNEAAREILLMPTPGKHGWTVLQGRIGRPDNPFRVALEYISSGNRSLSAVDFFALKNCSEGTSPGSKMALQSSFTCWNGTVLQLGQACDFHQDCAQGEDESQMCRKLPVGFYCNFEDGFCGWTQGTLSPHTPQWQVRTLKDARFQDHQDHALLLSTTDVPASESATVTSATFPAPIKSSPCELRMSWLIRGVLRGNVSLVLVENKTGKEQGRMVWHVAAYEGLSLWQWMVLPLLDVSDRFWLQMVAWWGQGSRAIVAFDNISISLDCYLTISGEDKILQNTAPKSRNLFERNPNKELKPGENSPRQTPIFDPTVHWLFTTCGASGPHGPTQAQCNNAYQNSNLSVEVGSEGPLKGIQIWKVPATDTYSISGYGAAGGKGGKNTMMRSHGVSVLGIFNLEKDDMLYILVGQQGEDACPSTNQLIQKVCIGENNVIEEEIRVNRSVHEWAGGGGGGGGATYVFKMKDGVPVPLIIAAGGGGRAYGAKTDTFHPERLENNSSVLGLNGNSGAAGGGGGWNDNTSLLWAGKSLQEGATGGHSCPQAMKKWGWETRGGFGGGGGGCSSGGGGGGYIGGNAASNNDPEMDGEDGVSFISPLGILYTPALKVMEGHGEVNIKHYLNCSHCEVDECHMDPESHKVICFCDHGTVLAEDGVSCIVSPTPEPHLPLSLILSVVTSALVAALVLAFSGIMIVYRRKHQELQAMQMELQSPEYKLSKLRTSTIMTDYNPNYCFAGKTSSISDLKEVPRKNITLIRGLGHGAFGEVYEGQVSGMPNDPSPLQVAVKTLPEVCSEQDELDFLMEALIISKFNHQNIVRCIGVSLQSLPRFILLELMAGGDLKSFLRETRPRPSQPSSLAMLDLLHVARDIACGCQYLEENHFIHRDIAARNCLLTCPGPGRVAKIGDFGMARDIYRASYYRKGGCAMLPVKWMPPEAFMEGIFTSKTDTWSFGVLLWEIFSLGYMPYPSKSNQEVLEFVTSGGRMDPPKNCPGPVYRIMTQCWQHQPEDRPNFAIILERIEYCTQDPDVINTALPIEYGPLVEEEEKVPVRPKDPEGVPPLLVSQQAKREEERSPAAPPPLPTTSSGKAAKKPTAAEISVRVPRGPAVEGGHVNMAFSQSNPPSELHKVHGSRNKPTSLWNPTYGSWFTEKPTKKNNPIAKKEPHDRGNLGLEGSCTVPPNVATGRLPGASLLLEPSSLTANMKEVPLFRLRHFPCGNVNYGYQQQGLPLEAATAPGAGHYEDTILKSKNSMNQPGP
Description: (§4) Assay of activity on ALK kinase
(§5) (1) A compound stock solution was prepared;
(§6) (2) The compound stock solution was diluted 3× to obtain a compound dilution;
(§7) (5) 5 μl of the 2× kinase working solution was added to the reaction plate, centrifuged at 1,000 rpm for 1 min, and incubated at 25° C. for 15 min;
(§8) (7) 5 μl of the TK-substrate-biotin and ATP (the mixture prepared in step (6)) was added to initiate the reaction;
(§9) (8) The mixture was centrifuged at 1,000 g for 30 s; the plate was sealed, and incubated at 25° C. for 60 min;
(§10) (11) The mixture was centrifuged at 1,000 g for 1 min, and incubated at 25° C. for 60 min;
as §2, §3
(§11) Y=Bottom+(Top−Bottom)/(1+10^((LogIC50−X)*Hill Slope))
(§12) X-axis: logarithm of compound concentration; Y axis: inhibition rate ([…])

[5] = target: T1, Ba/F3(EML4-ALK) cells (Homo sapiens, UniProt Q9UM73); test: Assay of activity on Ba/F3(EML4-ALK) cells (CTG, 72 h); type: cell-based; details: read-out: IC50 (nM) Ba/F3(EML4-ALK)
T1 construct: fused on or other part: Q9HC35 (Echinoderm microtubule-associated protein-like 4)
Outline: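 Ba/F3(EML4-ALK) cells, 700 per well, were exposed to 3-fold serial compound dilutions for 72 h at 37° C, 5% CO2, and viability was then read by CTG luminescence.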

[6] = target: ALK^G1202R (Homo sapiens, UniProt Q9UM73, G1202R); test: Assay of activity on ALK kinase; type: biochemical; details: kinase inhibition
Chain of ALK^G1202R (Q9UM73 19-1620 G1202R): as the sequence (Q9UM73 19-1620) above, with G1184R counted along it
Description: as §4, §5, §6, §7, §8, §9, §10, §2, §3, §11, §12

[7] = target: Ba/F3(EGFR^Del19/T790M/C797S) cells (Homo sapiens, UniProt P00533, DEL746-750/T790M/C797S, cells depend on it); test: Assay of activity on Ba/F3 cells (CTG, 72 h); type: cell-based; details: read-out: IC50 (nM) Ba/F3 (EGFR^Del19/T790M/C797S)
Chain of Ba/F3(EGFR^Del19/T790M/C797S) cells (P00533 with tags, fused parts or gaps DEL746-750/T790M/C797S): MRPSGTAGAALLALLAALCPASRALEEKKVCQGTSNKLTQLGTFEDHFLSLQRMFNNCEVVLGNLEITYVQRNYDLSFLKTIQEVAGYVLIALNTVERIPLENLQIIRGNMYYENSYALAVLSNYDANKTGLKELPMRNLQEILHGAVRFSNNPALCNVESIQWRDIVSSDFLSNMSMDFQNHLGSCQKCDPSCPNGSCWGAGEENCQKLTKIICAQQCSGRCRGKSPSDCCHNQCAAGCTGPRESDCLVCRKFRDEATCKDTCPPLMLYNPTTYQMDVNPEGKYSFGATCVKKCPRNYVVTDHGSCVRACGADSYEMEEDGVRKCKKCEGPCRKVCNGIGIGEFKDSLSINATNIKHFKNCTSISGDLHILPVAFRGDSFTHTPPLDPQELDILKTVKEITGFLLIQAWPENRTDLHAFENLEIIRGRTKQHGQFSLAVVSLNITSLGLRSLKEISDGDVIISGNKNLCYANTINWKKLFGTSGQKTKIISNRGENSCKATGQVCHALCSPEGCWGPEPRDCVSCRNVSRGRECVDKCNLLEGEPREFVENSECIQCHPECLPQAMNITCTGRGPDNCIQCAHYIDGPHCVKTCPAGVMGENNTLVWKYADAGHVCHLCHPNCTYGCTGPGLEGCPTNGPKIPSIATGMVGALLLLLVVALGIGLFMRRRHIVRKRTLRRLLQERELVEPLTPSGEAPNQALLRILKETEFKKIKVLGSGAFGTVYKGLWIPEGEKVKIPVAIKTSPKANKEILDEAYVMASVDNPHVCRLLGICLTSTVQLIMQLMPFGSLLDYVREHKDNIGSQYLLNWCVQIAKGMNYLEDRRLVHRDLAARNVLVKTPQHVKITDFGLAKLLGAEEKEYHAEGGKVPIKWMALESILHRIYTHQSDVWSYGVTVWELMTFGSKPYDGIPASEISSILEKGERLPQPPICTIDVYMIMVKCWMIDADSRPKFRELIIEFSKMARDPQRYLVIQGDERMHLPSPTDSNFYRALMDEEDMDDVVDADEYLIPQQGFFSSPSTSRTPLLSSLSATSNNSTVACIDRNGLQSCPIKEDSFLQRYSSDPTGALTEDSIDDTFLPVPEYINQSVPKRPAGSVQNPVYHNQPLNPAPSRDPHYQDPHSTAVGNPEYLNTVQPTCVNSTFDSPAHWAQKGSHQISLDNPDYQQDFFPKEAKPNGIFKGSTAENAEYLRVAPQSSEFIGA
Outline: as §1

Chain of Ba/F3(EGFR^L858R/T790M/C797S) cells (P00533 whole entry T790M/C797S/L858R): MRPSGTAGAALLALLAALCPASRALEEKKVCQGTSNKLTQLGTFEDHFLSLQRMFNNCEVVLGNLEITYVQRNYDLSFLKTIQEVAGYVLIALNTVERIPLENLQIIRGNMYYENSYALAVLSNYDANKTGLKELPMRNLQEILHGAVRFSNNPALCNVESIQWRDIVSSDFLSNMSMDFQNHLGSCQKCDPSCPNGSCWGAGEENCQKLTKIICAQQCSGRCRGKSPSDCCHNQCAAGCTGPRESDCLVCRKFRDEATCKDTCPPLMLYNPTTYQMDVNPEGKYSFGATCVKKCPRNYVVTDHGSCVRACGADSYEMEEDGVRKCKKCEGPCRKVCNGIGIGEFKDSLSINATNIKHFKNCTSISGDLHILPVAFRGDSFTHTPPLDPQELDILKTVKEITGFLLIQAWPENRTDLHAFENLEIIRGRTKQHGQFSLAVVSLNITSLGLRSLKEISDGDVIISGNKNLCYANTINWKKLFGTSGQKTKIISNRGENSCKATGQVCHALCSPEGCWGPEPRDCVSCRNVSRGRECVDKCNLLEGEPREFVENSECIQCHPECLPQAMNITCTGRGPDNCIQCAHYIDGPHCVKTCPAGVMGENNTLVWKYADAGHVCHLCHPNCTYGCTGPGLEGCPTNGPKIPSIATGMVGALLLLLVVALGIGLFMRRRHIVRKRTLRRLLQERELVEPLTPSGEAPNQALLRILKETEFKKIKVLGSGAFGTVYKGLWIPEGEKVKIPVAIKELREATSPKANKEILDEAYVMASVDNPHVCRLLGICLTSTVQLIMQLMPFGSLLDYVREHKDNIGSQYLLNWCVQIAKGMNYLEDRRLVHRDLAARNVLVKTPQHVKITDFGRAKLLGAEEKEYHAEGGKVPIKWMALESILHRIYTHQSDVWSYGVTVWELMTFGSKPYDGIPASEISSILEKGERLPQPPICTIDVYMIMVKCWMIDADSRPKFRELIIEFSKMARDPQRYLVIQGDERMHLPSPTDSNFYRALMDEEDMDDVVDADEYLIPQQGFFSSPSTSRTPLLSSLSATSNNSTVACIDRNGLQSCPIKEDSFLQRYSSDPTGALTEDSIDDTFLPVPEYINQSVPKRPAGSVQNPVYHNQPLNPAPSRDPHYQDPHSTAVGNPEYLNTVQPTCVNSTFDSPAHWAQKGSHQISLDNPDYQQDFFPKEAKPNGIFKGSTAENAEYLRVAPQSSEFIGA

| GI50 [1] [nM] | IC50 [2] [nM] | IC50 [3] [nM] | IC50 [4] [nM] | GI50 [5] [nM] | IC50 [6] [nM] | GI50 [7] [nM] | Compound |
| --- | --- | --- | --- | --- | --- | --- | --- |
| 201 to 300 | 101 to 200 | 1 to 100 | 101 to 200 |  |  |  | COc1cc(N2CCC(N3CCN(C(=O)CCCCCCc4cccc5c4C(=O)N(C4CCC(=O)NC4=O)C5=O)CC3)CC2)ccc1Nc1ncc(Cl)c(Nc2ccccc2P(C)(C)=O)n1 (stereo not shown) [Compound A1, 4-(7-(4-(1-(4-((5-chloro-4-((2-(dimethylphosphoryl)phenyl)amino)pyrimidin-2-yl)amino)-3-methoxyphenyl)piperidin-4-yl)piperazin-1-yl)-7-oxoheptyl)-2-(2,6-dioxopiperidin-3-yl)isoindoline-1,3-dione] |
|  | 1 to 100 | 1 to 100 |  |  |  |  | COc1cc(N2CCC(N3CCN(CCOCCOCCOCCNC(=O)COc4cccc5c4C(=O)N(C4CCC(=O)NC4=O)C5=O)CC3)CC2)ccc1Nc1ncc(Cl)c(Nc2ccccc2P(C)(C)=O)n1 (stereo not shown) [Compound A3, N-(2-(2-(2-(2-(4-(1-(4-((5-chloro-4-((2-(dimethylphosphoryl)phenyl)amino)pyrimidin-2-yl)amino)-3-methoxyphenyl)piperidin-4-yl)piperazin-1-yl)ethoxy)ethoxy)ethoxy)ethyl)-2-((2-(2,6-dioxopiperidin-3-yl)-1,3-dioxoisoindolin-4-yl)oxy)acetamide] |
| 1 to 100 |  | 1 to 100 | 1 to 100 | 1 to 100 | 101 to 200 |  | COc1cc(N2CCC(N3CCN(CCCCCCCNc4cccc5c4CN(C4CCC(=O)NC4=O)C5=O)CC3)CC2)ccc1Nc1ncc(Cl)c(Nc2ccccc2P(C)(C)=O)n1 (stereo not shown) [Compound A12, 3-(4-((7-(4-(1-(4-((5-chloro-4-((2-(dimethylphosphoryl)phenyl)amino)pyrimidin-2-yl)amino)-3-methoxyphenyl)piperidin-4-yl)piperazin-1-yl)heptyl)amino)-1-oxoisoindolin-2-yl)piperidine-2,6-dione] |
| 101 to 200 |  | 101 to 200 | 1 to 100 | 1 to 100 | > 300 |  | COc1cc(N2CCC(N3CCN(CCCCCCCCCNc4cccc5c4CN(C4CCC(=O)NC4=O)C5=O)CC3)CC2)ccc1Nc1ncc(Cl)c(Nc2ccccc2P(C)(C)=O)n1 (stereo not shown) [Compound A13, 3-(4-((9-(4-(1-(4-((5-chloro-4-((2-(dimethylphosphoryl)phenyl)amino)pyrimidin-2-yl)amino)-3-methoxyphenyl)piperidin-4-yl)piperazin-1-yl)nonyl)amino)-1-oxoisoindolin-2-yl)piperidine-2,6-dione] |
| > 300 |  | 1 to 100 | 1 to 100 |  | 201 to 300 |  | COc1cc(N2CCC(N3CCN(CC4(COc5cccc6c5C(=O)N(C5CCC(=O)NC5=O)C6=O)CC4)CC3)CC2)ccc1Nc1ncc(Cl)c(Nc2ccccc2P(C)(C)=O)n1 (stereo not shown) [Compound C106, 4-((1-((4-(1-(4-((5-chloro-4-((2-(dimethylphosphoryl)phenyl)amino)pyrimidin-2-yl)amino)-3-methoxyphenyl)piperidin-4-yl)piperazin-1-yl)methyl)cyclopropyl)methoxy)-2-(2,6-dioxopiperidin-3-yl)isoindoline-1,3-dione] |
| 101 to 200 |  | 1 to 100 | 1 to 100 |  | 101 to 200 |  | COc1cc(N2CCC(N3CCN(CC(=O)OCC4(COc5cccc6c5C(=O)N(C5CCC(=O)NC5=O)C6=O)CC4)CC3)CC2)ccc1Nc1ncc(Cl)c(Nc2ccccc2P(C)(C)=O)n1 (stereo not shown) [Compound C107, 2-(4-(1-(4-((5-chloro-4-((2-(dimethylphosphoryl)phenyl)amino)pyrimidin-2-yl)amino)-3-methoxyphenyl)piperidin-4-yl)piperazin-1-yl)acetate (1-(((2-(2,6-dioxopiperidin-3-yl)-1,3-dioxoisoindolin-4-yl)oxy)methyl)cyclopropyl)methyl ester] |
| > 300 |  | 1 to 100 | 1 to 100 |  | 1 to 100 |  | COc1cc(N2CCC(N3CCN(CC(=O)N4CCC[C@H]4COc4cccc5c4C(=O)N(C4CCC(=O)NC4=O)C5=O)CC3)CC2)ccc1Nc1ncc(Cl)c(Nc2ccccc2P(C)(C)=O)n1 (stereo partly drawn) [Compound C109, 4-(((S)-1-(2-(4-(1-(4-((5-chloro-4-((2-(dimethylphosphoryl)phenyl)amino)pyrimidin-2-yl)amino)-3-methoxyphenyl)piperidin-4-yl)piperazin-1-yl)acetyl)pyrrolidin-2-yl)methoxy)-2-(2,6-dioxopiperidin-3-yl)isoindoline-1,3-dione] |
|  | 1 to 100 | 1 to 100 |  | 1 to 100 |  | 1 to 100 | COc1cc(N2CCC3(CCN(CCCCC#Cc4cccc5c4CN(C4CCC(=O)NC4=O)C5=O)CC3)CC2)c(C)cc1Nc1ncc(Br)c(Nc2ccc3nccnc3c2P(C)(C)=O)n1 (stereo not shown) [Compound C187, 3-(4-(6-(9-(4-((5-bromo-4-((5-(dimethylphosphoryl)quinoxalin-6-yl)amino)pyrimidin-2-yl)amino)-5-methoxy-2-methylphenyl)-3,9-diazaspiro[5.5]undecan-3-yl)hex-1-yn-1-yl)-1-oxoisoindolin-2-yl)piperidine-2,6-dione] |
|  |  |  | 1 to 100 | 1 to 100 | 201 to 300 | 1 to 100 | COc1cc(N2CCC(N3CCN(CCCCCC#Cc4ccc5c(c4)CN(C4CCC(=O)NC4=O)C5=O)CC3)CC2)ccc1Nc1ncc(Cl)c(Nc2ccccc2P(C)(C)=O)n1 (stereo not shown) [Compound C190, 3-(5-(7-(4-(1-(4-((5-chloro-4-((2-(dimethylphosphoryl)phenyl)amino)pyrimidin-2-yl)amino)-3-methoxyphenyl)piperidin-4-yl)piperazin-1-yl)hept-1-yn-1-yl)-1-oxoisoindolin-2-yl)piperidine-2,6-dione] |
|  |  |  | 1 to 100 | 1 to 100 | 201 to 300 | 1 to 100 | COc1cc(N2CCC(N3CCN(CCOCC#Cc4ccc5c(c4)CN(C4CCC(=O)NC4=O)C5=O)CC3)CC2)ccc1Nc1ncc(Cl)c(Nc2ccccc2P(C)(C)=O)n1 (stereo not shown) [Compound C193, 3-(5-(3-(2-(4-(1-(4-((5-chloro-4-((2-(dimethylphosphoryl)phenyl)amino)pyrimidin-2-yl)amino)-3-methoxyphenyl)piperidin-4-yl)piperazin-1-yl)ethoxy)prop-1-yn-1-yl)-1-oxoisoindolin-2-yl)piperidine-2,6-dione] |
|  |  |  | 1 to 100 | 1 to 100 | > 300 | 1 to 100 | COc1cc(N2CCC(N3CCN(CCCCCCC#Cc4ccc5c(c4)CN(C4CCC(=O)NC4=O)C5=O)CC3)CC2)ccc1Nc1ncc(Cl)c(Nc2ccccc2P(C)(C)=O)n1 (stereo not shown) [Compound C194, 3-(5-(8-(4-(1-(4-((5-chloro-4-((2-(dimethylphosphoryl)phenyl)amino)pyrimidin-2-yl)amino)-3-methoxyphenyl)piperidin-4-yl)piperazin-1-yl)oct-1-yn-1-yl)-1-oxoisoindolin-2-yl)piperidine-2,6-dione] |

| Compound | GI50 [1] [nM] | IC50 [2] [nM] | IC50 [3] [nM] | IC50 [4] [nM] | GI50 [5] [nM] | IC50 [6] [nM] | GI50 [7] [nM] |
| --- | --- | --- | --- | --- | --- | --- | --- |
| COc1cc(N2CCC(N3CCN(CC(=O)Nc4cccc5c4CN(C4CCC(=O)NC4=O)C5=O)CC3)CC2)ccc1Nc1ncc(Cl)c(Nc2ccccc2P(C)(C)=O)n1 (stereo not shown) [Compound A17, 2-(4-(1-(4-((5-chloro-4-((2-(dimethylphosphoryl)phenyl)amino)pyrimidin-2-yl)amino)-3-methoxyphenyl)piperidin-4-yl)piperazin-1-yl)-N-(2-(2,6-dioxopiperidin-3-yl)-1-oxoisoindolin-4-yl)acetamide] |  | 1 to 100 | 1 to 100 |  |  |  |  |
